Measured values published in US12077503B2, “Substituted cyclic amides and their use as herbicides” (FMC CORPORATION, priority 2015, dated 2024).

How the values were obtained:
Format in all cases: in vivo
[1] = test system: barnyardgrass (Echinochloa crus-galli); assay: Test G Post-Emergence Protocol; settings: Echinochloa crus-galli, post-emergence, 312 h, read-out: Barnyardgrass damage rating; for pest or weed control at 15.625 g/ha: 15.625 g ai/ha, evaluated after 13 days (100=total damage to plant; 0=no damage to plant); for pest or weed control at 62.5 g/ha: 62.5 g ai/ha; for pest or weed control at 62.5 g/ha / pest or weed control at 250 g/ha: evaluated after 13 days, 100=total damage to plant, 0=no damage to plant; for pest or weed control at 250 g/ha: 250 g ai/ha
Procedure, shortened: (§1)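 Scores run 0 (no damage) to 100 (total damage) and were taken 13 days after spraying. Plants had been raised in pots for 8 days under glasshouse control (24/16 °C, 14 h photoperiod, 65% humidity) and then treated at 15.625, 62.5 or 250 g/ha.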

[2] = test system: redroot pigweed (Amaranthus retroflexus); assay: Test G Post-Emergence Protocol; settings: Amaranthus retroflexus, post-emergence, 312 h, read-out: Pigweed, Redroot damage rating; for pest or weed control at 15.625 g/ha: 15.625 g ai/ha, evaluated after 13 days (100=total damage to plant; 0=no damage to plant); for pest or weed control at 62.5 g/ha: 62.5 g ai/ha; for pest or weed control at 62.5 g/ha / pest or weed control at 250 g/ha: evaluated after 13 days, 100=total damage to plant, 0=no damage to plant; for pest or weed control at 250 g/ha: 250 g ai/ha
Procedure, shortened: as §1

corn (Zea mays) [3] = assay: Test G Post-Emergence Protocol; settings: Zea mays, post-emergence, 312 h, read-out: Corn damage rating; for plant injury at 15.625 g/ha: 15.625 g ai/ha, evaluated after 13 days (100=total damage to plant; 0=no damage to plant); for plant injury at 62.5 g/ha: 62.5 g ai/ha; for plant injury at 62.5 g/ha / plant injury at 250 g/ha: evaluated after 13 days, 100=total damage to plant, 0=no damage to plant; for plant injury at 250 g/ha: 250 g ai/ha
Procedure, shortened: as §1

[4] = test system: velvetleaf (Abutilon theophrasti); assay: Test G Post-Emergence Protocol; settings: for pest or weed control at 15.625 g/ha: 15.625 g ai/ha, evaluated after 13 days (100=total damage to plant; 0=no damage to plant); for pest or weed control at 250 g/ha: 250 g ai/ha
Procedure, shortened: as §1

[5] = test system: ivy-leaved morning glory (Ipomoea hederacea); assay: Test G Post-Emergence Protocol; settings: for pest or weed control at 62.5 g/ha: 62.5 g ai/ha; for pest or weed control at 62.5 g/ha / pest or weed control at 250 g/ha: evaluated after 13 days, 100=total damage to plant, 0=no damage to plant; for pest or weed control at 250 g/ha: 250 g ai/ha
Procedure, shortened: as §1

[6] = test system: giant foxtail (Setaria faberi); assay: Test G Post-Emergence Protocol; settings: Setaria faberi, post-emergence, 312 h, read-out: Foxtail, Giant damage rating; for pest or weed control at 15.625 g/ha: 15.625 g ai/ha, evaluated after 13 days (100=total damage to plant; 0=no damage to plant); for pest or weed control at 62.5 g/ha: 62.5 g ai/ha
Procedure, shortened: as §1

[7] = test system: barnyardgrass (Echinochloa crus-galli); assay: Test G Pre-Emergence Protocol; settings: Echinochloa crus-galli, pre-emergence, 312 h, evaluated after 13 days; for pest or weed control at 15.625 g/ha: 15.625 g ai/ha; for pest or weed control at 15.625 g/ha / pest or weed control at 250 g/ha: read-out: Barnyardgrass damage rating (100=total damage to plant; 0=no damage to plant); for pest or weed control at 62.5 g/ha: 62.5 g ai/ha, 100=total damage to plant, 0=no damage to plant, read-out: Barnyardgrass damage rating; for pest or weed control at 250 g/ha: 250 g ai/ha
Procedure, shortened: (§2)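 Visual injury (0–100) at day 13 after a single pre-emergence spray. Rates: 15.625, 62.5, 250 g/ha in acetone–water 50:50 with 0.5% Tween 20. Growth conditions: 24/16° C, 14 h light, 65% humidity.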

[8] = test system: redroot pigweed (Amaranthus retroflexus); assay: Test G Pre-Emergence Protocol; settings: evaluated after 13 days; for pest or weed control at 15.625 g/ha: 15.625 g ai/ha; for pest or weed control at 62.5 g/ha: 62.5 g ai/ha, 100=total damage to plant, 0=no damage to plant, read-out: Pigweed, Redroot damage rating
Procedure, shortened: as §2

corn (Zea mays) [9] = assay: Test G Pre-Emergence Protocol; settings: evaluated after 13 days; for plant injury at 62.5 g/ha: 62.5 g ai/ha, 100=total damage to plant, 0=no damage to plant, read-out: Corn damage rating; for plant injury at 250 g/ha: 250 g ai/ha
Procedure, shortened: as §2

[10] = test system: velvetleaf (Abutilon theophrasti); assay: Test G Pre-Emergence Protocol; settings: evaluated after 13 days; for pest or weed control at 62.5 g/ha: 62.5 g ai/ha, 100=total damage to plant, 0=no damage to plant, read-out: Velvetleaf damage rating; for pest or weed control at 250 g/ha: 250 g ai/ha
Procedure, shortened: as §2

[11] = test system: ivy-leaved morning glory (Ipomoea hederacea); assay: Test G Pre-Emergence Protocol; settings: evaluated after 13 days; for pest or weed control at 15.625 g/ha: 15.625 g ai/ha; for pest or weed control at 15.625 g/ha / pest or weed control at 250 g/ha: read-out: Morningglory, Ivy-leaved damage rating (100=total damage to plant; 0=no damage to plant); for pest or weed control at 250 g/ha: 250 g ai/ha
Procedure, shortened: as §2

[12] = test system: giant foxtail (Setaria faberi); assay: Test G Pre-Emergence Protocol; settings: Setaria faberi, pre-emergence, 312 h, evaluated after 13 days; for pest or weed control at 15.625 g/ha: 15.625 g ai/ha; for pest or weed control at 15.625 g/ha / pest or weed control at 250 g/ha: read-out: Foxtail, Giant damage rating (100=total damage to plant; 0=no damage to plant); for pest or weed control at 62.5 g/ha: 62.5 g ai/ha, 100=total damage to plant, 0=no damage to plant, read-out: Foxtail, Giant damage rating; for pest or weed control at 250 g/ha: 250 g ai/ha
Procedure, shortened: as §2

[13] = Abutilon theophrasti, post-emergence, 312 h, read-out: Velvetleaf damage rating
[14] = Abutilon theophrasti, post-emergence, 312 h, evaluated after 13 days, 100=total damage to plant, 0=no damage to plant, read-out: Velvetleaf damage rating
[15] = Ipomoea, post-emergence, 312 h, read-out: Morningglory, Ivy-leaved damage rating
[16] = evaluated after 13 days, 100=total damage to plant, 0=no damage to plant
[17] = Amaranthus retroflexus, pre-emergence, 312 h, read-out: Pigweed, Redroot damage rating (100=total damage to plant; 0=no damage to plant)
[18] = Amaranthus retroflexus, pre-emergence, 312 h
[19] = Zea mays, pre-emergence, 312 h, read-out: Corn damage rating (100=total damage to plant; 0=no damage to plant)
[20] = Abutilon theophrasti, pre-emergence, 312 h
[21] = Abutilon theophrasti, pre-emergence, 312 h, read-out: Velvetleaf damage rating (100=total damage to plant; 0=no damage to plant)

Structure (SMILES)	pest or weed control at 15.625 g/ha [1] [%]	pest or weed control at 62.5 g/ha [1] [%]	pest or weed control at 250 g/ha [1] [%]	pest or weed control at 15.625 g/ha [2] [%]	pest or weed control at 62.5 g/ha [2] [%]	pest or weed control at 250 g/ha [2] [%]	plant injury at 15.625 g/ha (corn (Zea mays) [3]) [%]	plant injury at 62.5 g/ha (corn (Zea mays) [3]) [%]	plant injury at 250 g/ha (corn (Zea mays) [3]) [%]	pest or weed control at 15.625 g/ha [4, 13] [%]	pest or weed control at 250 g/ha [4, 14] [%]	pest or weed control at 62.5 g/ha [5, 15] [%]	pest or weed control at 250 g/ha [5, 15] [%]	pest or weed control at 15.625 g/ha [6] [%]	pest or weed control at 62.5 g/ha [6, 16] [%]	pest or weed control at 15.625 g/ha [7] [%]	pest or weed control at 62.5 g/ha [7] [%]	pest or weed control at 250 g/ha [7] [%]	pest or weed control at 15.625 g/ha [8, 17] [%]	pest or weed control at 62.5 g/ha [8, 18] [%]	also measured
CN1C[C@H](c2cccc(C(F)(F)F)c2)[C@@H](C(=O)Nc2cccc(F)n2)C1=O (racemic) [Compound 1671]	70	70	80	10	30	50	60	70	80	0	40	70	50	70	80	70	90	90	0	30	Velvetleaf damage rating ([4]; 62.5 g ai/ha, evaluated after 13 days, 100=total damage to plant, 0=no damage to plant): 10; Morningglory, Ivy-leaved damage rating ([5]; 15.625 g ai/ha, evaluated after 13 days (100=total damage to plant; 0=no damage to plant)): 0; pest or weed control at 250 g/ha ([6]; 250 g ai/ha, evaluated after 13 days, 100=total damage to plant, 0=no damage to plant): 80%; Pigweed, Redroot damage rating (100=total damage to plant; 0=no damage to plant) ([8]; 250 g ai/ha): 50; Corn damage rating (100=total damage to plant; 0=no damage to plant) (corn (Zea mays) [9]; 15.625 g ai/ha): 30; plant injury at 62.5 g/ha (corn (Zea mays) [9]; Zea mays, pre-emergence, 312 h): 80%; plant injury at 250 g/ha (corn (Zea mays) [9]; [19]): 80%; Velvetleaf damage rating (100=total damage to plant; 0=no damage to plant) ([10]; 15.625 g ai/ha): 20; pest or weed control at 62.5 g/ha [10, 20]: 30%; pest or weed control at 250 g/ha [10, 21]: 60%; Morningglory, Ivy-leaved damage rating ([11]; 62.5 g ai/ha, 100=total damage to plant, 0=no damage to plant): 20; pest or weed control at 15.625 g/ha ([11]; Ipomoea, pre-emergence, 312 h): 10%; pest or weed control at 250 g/ha ([11]; Ipomoea, pre-emergence, 312 h): 70%; pest or weed control at 15.625 g/ha [12]: 80%; pest or weed control at 62.5 g/ha [12]: 90%; pest or weed control at 250 g/ha [12]: 90%
CN1C[C@H](c2ccc(C(F)F)cc2)[C@@H](C(=O)Nc2cnccc2C(F)(F)F)C1=O (racemic) [Compound 1743]	0	0	80	0	0	50	0	0	60	0	50	0	30	20	70	30	40	80	20	60	pest or weed control at 62.5 g/ha ([4]; Abutilon theophrasti, post-emergence, 312 h, 62.5 g ai/ha, evaluated after 13 days, 100=total damage to plant, 0=no damage to plant, read-out: Velvetleaf damage rating): 0%; pest or weed control at 15.625 g/ha ([5]; Ipomoea, post-emergence, 312 h, 15.625 g ai/ha, evaluated after 13 days (100=total damage to plant; 0=no damage to plant), read-out: Morningglory, Ivy-leaved damage rating): 0%; pest or weed control at 250 g/ha ([8]; Amaranthus retroflexus, pre-emergence, 312 h, 250 g ai/ha, read-out: Pigweed, Redroot damage rating (100=total damage to plant; 0=no damage to plant)): 80%; plant injury at 15.625 g/ha (corn (Zea mays) [9]; Zea mays, pre-emergence, 312 h, 15.625 g ai/ha, read-out: Corn damage rating (100=total damage to plant; 0=no damage to plant)): 30%; plant injury at 62.5 g/ha (corn (Zea mays) [9]; Zea mays, pre-emergence, 312 h): 20%; plant injury at 250 g/ha (corn (Zea mays) [9]; [19]): 80%; pest or weed control at 15.625 g/ha ([10]; Abutilon theophrasti, pre-emergence, 312 h, 15.625 g ai/ha, read-out: Velvetleaf damage rating (100=total damage to plant; 0=no damage to plant)): 10%; pest or weed control at 62.5 g/ha [10, 20]: 50%; pest or weed control at 250 g/ha [10, 21]: 80%; pest or weed control at 15.625 g/ha ([11]; Ipomoea, pre-emergence, 312 h): 0%; pest or weed control at 62.5 g/ha ([11]; Ipomoea, pre-emergence, 312 h, 62.5 g ai/ha, 100=total damage to plant, 0=no damage to plant, read-out: Morningglory, Ivy-leaved damage rating): 60%; pest or weed control at 250 g/ha ([11]; Ipomoea, pre-emergence, 312 h): 70%; pest or weed control at 15.625 g/ha [12]: 30%; pest or weed control at 62.5 g/ha [12]: 90%; pest or weed control at 250 g/ha [12]: 90%
